From patent US11312727B1, “Macrocyclic flu endonuclease inhibitors” (Janssen BioPharma, Inc., priority 2018, dated 2022)

What was measured:
[1] = test system: Influenza strain A549 A/WSN/33 (H1N1); experiment: microbe, parasite or virus in culture; type: cell-based; conditions: Influenza A virus, A549, 20 h, A549 cells, influenza A/WSN/33 (H1N1), 20 hours incubation; read-out: A549_A(H1N1) EC50
in vitro = conditions: human, CC50, uninfected A549 cells, CellTiter-Glo

## O=C1c2c(O)c(=O)ccn2N2CN1C/C=C\CCc1ccccc1[C@@H]2c1ccccc1 (single isomer, unassigned) [Compound 21B, (17*S,*Z)-4-hydroxy-16-phenyl-7,10,11,16-tetrahydro-6,17-methanobenzo[k]pyrido[1,2-b][1,2,5]triazacyclotridecine-3,5-dione]
[1]
  EC50: 815 nM
In vitro
  CC50: > 1000 nM

## O=C1c2c(O)c(=O)ccn2N2CN1C/C=C\COc1ccc(F)cc1[C@H]2c1ccccc1 (single isomer, unassigned) [Compound 22A, (18*R,Z)-2-fluoro-12-hydroxy-18-phenyl-6,9-dihydro-18H-10,17-methanobenzo[b]pyrido[1,2-f][1]oxa[5,6,9]triazacyclotridecine-11,13-dione]
[1]
  EC50: 9540 nM
In vitro
  CC50: > 1000 nM

## O=C1c2c(O)c(=O)ccn2N2CN1C/C=C\COc1ccc(F)cc1[C@@H]2c1ccccc1 (single isomer, unassigned) [Compound 22B, (18*S,Z)-2-fluoro-12-hydroxy-18-phenyl-6,9-dihydro-18H-10,17-methanobenzo[b]pyrido[1,2-f][1]oxa[5,6,9]triazacyclotridecine-11,13-dione]
[1]
  EC50: 12 nM
In vitro
  CC50: > 1000 nM

## O=C1c2c(O)c(=O)ccn2N2CN1CCCCCc1ncccc1[C@H]2c1ccccc1 (single isomer, unassigned) [Compound 23A, (18*R)-12-hydroxy-18-phenyl-5,6,7,8,9,18-hexahydro-10,17-methanodipyrido[1,2-b:2′,3′-k][1,2,5]triazacyclotridecine-11,13-dione]
[1]
  EC50: 55000 nM
In vitro
  CC50: > 10000 nM

## O=C1c2c(O)c(=O)ccn2N2CN1CCCCCc1ncccc1[C@@H]2c1ccccc1 (single isomer, unassigned) [Compound 23B, (18*S)-12-hydroxy-18-phenyl-5,6,7,8,9,18-hexahydro-10,17-methanodipyrido[1,2-b:2′,3′-k][1,2,5]triazacyclotridecine-11,13-dione]
[1]
  EC50: 12200 nM
In vitro
  CC50: > 1000 nM

## O=C1c2c(O)c(=O)ccn2N2CN1C/C=C\CCc1ncccc1[C@H]2c1ccccc1 (single isomer, unassigned) [Compound 24A, (18*R,*Z)-12-hydroxy-18-phenyl-5,6,9,18-tetrahydro-10,17-methanodipyrido[1,2-b:2′,3′-k][1,2,5]triazacyclotridecine-11,13-dione]
[1]
  EC50: 39600 nM
In vitro
  CC50: > 10000 nM

## O=C1c2c(O)c(=O)ccn2N2CN1C/C=C\CCc1ncccc1[C@@H]2c1ccccc1 (single isomer, unassigned) [Compound 24B, (18*S,*Z)-12-hydroxy-18-phenyl-5,6,9,18-tetrahydro-10,17-methanodipyrido[1,2-b:2′,3′-k][1,2,5]triazacyclotridecine-11,13-dione]
[1]
  EC50: 1530 nM
In vitro
  CC50: > 1000 nM

## O=C1c2c(O)c(=O)ccn2N2CN1C/C=C\COc1ccc(F)cc1[C@H]2c1cccc(F)c1 (single isomer, unassigned) [Compound 25A, (18*R,Z)-2-fluoro-18-(3-fluorophenyl)-12-hydroxy-6,9-dihydro-18H-10,17-methanobenzo[b]pyrido[1,2-f][1]oxa[5,6,9]triazacyclotridecine-11,13-dione]
[1]
  EC50: 9800 nM
In vitro
  CC50: > 2000 nM

## O=C1c2c(O)c(=O)ccn2N2CN1C/C=C\COc1ccc(F)cc1[C@@H]2c1cccc(F)c1 (single isomer, unassigned) [Compound 25B, (18*S,Z)-2-fluoro-18-(3-fluorophenyl)-12-hydroxy-6,9-dihydro-18H-10,17-methanobenzo[b]pyrido[1,2-f][1]oxa[5,6,9]triazacyclotridecine-11,13-dione]
[1]
  EC50: 11 nM
In vitro
  CC50: > 2000 nM

## O=C1c2c(O)c(=O)ccn2N2CN1C/C=C\COc1ccccc1[C@H]2c1cccnc1 (single isomer, unassigned) [Compound 26A, (18*R,*Z)-12-hydroxy-18-(pyridin-3-yl)-6,9-dihydro-18H-10,17-methanobenzo[b]pyrido[1,2-f][1]oxa[5,6,9]triazacyclotridecine-11,13-dione]
[1]
  EC50: 394 nM
In vitro
  CC50: > 2000 nM
